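Results reflect a 48-hour exposure of cells in 96-well plates to compound at five concentrations. Abbreviation: GI50, concentration required for 50% inhibition of growth.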 Active and inactive are the calls of the source. Cut-off read from the data, not from the text of the source: active = GI50 up to about 1.1 µM and inactive = higher.
Columns and labels:
Assay in all cases: NCI tumour cell line growth inhibition, 48 h
[1] = tested on: UACC-62
[2] = tested on: RPMI-8226
[3] = tested on: ACHN
[4] = tested on: HOP-62
[5] = tested on: HCT-116
[6] = tested on: KM12
[7] = tested on: LOX IMVI
[8] = tested on: SNB-19
[9] = tested on: OVCAR-4
[10] = tested on: HL-60
[11] = tested on: HT-29
[12] = tested on: IGROV-1
[13] = tested on: SF-295
[14] = tested on: NCI-H23
[15] = tested on: SK-MEL-2
[16] = tested on: UO-31

In the case of `CN(C)CC1CC/C(=C\c2ccc(Cl)c(Cl)c2)C1=O` (configuration not stated), the GI50 [1] is reported as 17.6 µM (inactive), the GI50 [2] is reported as 1.95 µM (inactive) and the GI50 [3] is reported as > 45.1 µM (inactive). The GI50 [4] was > 58.2 µM (inactive), the GI50 [5] was 24.3 µM (inactive) and the GI50 [6] was 11.5 µM (inactive). The GI50 [7] was 13.5 µM (inactive), the GI50 [8] was 37.3 µM (inactive) and the GI50 [9] was 19 µM (inactive). For the same compound, the GI50 [10] was 0.586 µM (active), the GI50 [11] was 25.5 µM (inactive) and the GI50 [12] was > 50.4 µM (inactive). For the same compound, the GI50 [13] was 48.6 µM (inactive), the GI50 [14] was 20.6 µM (inactive) and the GI50 [15] was > 45.1 µM (inactive). The GI50 [16] was > 40.6 µM (inactive).
In the case of `C=C(CO)CC(/C=C(\C)CC/C=C(\C)CCl)OC(C)=O` (configuration not stated), the GI50 [1] is reported as > 100 µM (inactive), the GI50 [2] is reported as > 100 µM (inactive) and the GI50 [3] is reported as > 100 µM (inactive). For the same compound, the GI50 [4] was > 100 µM (inactive), the GI50 [5] was > 100 µM (inactive) and the GI50 [6] was > 100 µM (inactive). For the same compound, the GI50 [7] was > 100 µM (inactive), the GI50 [8] was > 100 µM (inactive) and the GI50 [9] was > 100 µM (inactive). The GI50 [10] was > 100 µM (inactive), the GI50 [11] was > 100 µM (inactive) and the GI50 [12] was > 100 µM (inactive). The GI50 [13] was > 100 µM (inactive), the GI50 [14] was > 100 µM (inactive) and the GI50 [15] was > 100 µM (inactive). For the same compound, the GI50 [16] was > 100 µM (inactive).
For `C1CN2CCN3CCN4CCN1[PH]243`, the GI50 [1] was > 100 µM (inactive), the GI50 [2] was > 100 µM (inactive) and the GI50 [3] was > 100 µM (inactive). For the same compound, the GI50 [4] was > 100 µM (inactive), the GI50 [5] was > 100 µM (inactive) and the GI50 [6] was > 100 µM (inactive). The GI50 [7] was > 100 µM (inactive), the GI50 [8] was > 100 µM (inactive) and the GI50 [9] was > 100 µM (inactive). For the same compound, the GI50 [10] was > 100 µM (inactive), the GI50 [11] was > 100 µM (inactive) and the GI50 [12] was > 100 µM (inactive). For the same compound, the GI50 [13] was > 100 µM (inactive), the GI50 [14] was > 100 µM (inactive) and the GI50 [15] was > 100 µM (inactive). The GI50 [16] was > 100 µM (inactive).
`CC1=C(C(=O)CC(=O)C(=O)Nc2ccccc2)Sc2ccccc2N1` was tested, and the GI50 [1] was > 100 µM (inactive), the GI50 [2] was > 100 µM (inactive) and the GI50 [3] was > 100 µM (inactive). For the same compound, the GI50 [4] was > 100 µM (inactive), the GI50 [5] was > 100 µM (inactive) and the GI50 [6] was > 100 µM (inactive). For the same compound, the GI50 [7] was > 100 µM (inactive), the GI50 [8] was > 100 µM (inactive) and the GI50 [9] was > 100 µM (inactive). For the same compound, the GI50 [10] was > 100 µM (inactive), the GI50 [11] was > 100 µM (inactive) and the GI50 [12] was > 100 µM (inactive). The GI50 [13] was > 100 µM (inactive), the GI50 [14] was > 100 µM (inactive) and the GI50 [15] was > 100 µM (inactive). For the same compound, the GI50 [16] was > 100 µM (inactive).
With `CCCCCCNC(=O)CCN(C(=O)O)S(=O)(=O)c1ccc(NC(=O)c2ccccc2)cc1` the GI50 [1] was > 44.6 µM (inactive), the GI50 [2] was 26.4 µM (inactive) and the GI50 [3] was > 100 µM (inactive). The GI50 [4] was > 100 µM (inactive), the GI50 [5] was 39 µM (inactive) and the GI50 [6] was > 57.4 µM (inactive). The GI50 [7] was 25.1 µM (inactive), the GI50 [8] was > 100 µM (inactive) and the GI50 [9] was > 100 µM (inactive). The GI50 [10] was 35.9 µM (inactive), the GI50 [11] was > 86.1 µM (inactive) and the GI50 [12] was > 100 µM (inactive). The GI50 [13] was > 100 µM (inactive), the GI50 [14] was > 100 µM (inactive) and the GI50 [15] was > 100 µM (inactive). The GI50 [16] was > 100 µM (inactive).
For `CP1(=O)CCCCC1`, the GI50 [1] was > 100 µM (inactive), the GI50 [2] was > 100 µM (inactive) and the GI50 [3] was > 100 µM (inactive). For the same compound, the GI50 [4] was > 100 µM (inactive), the GI50 [5] was > 100 µM (inactive) and the GI50 [6] was > 100 µM (inactive). The GI50 [7] was > 100 µM (inactive), the GI50 [8] was > 100 µM (inactive) and the GI50 [9] was > 100 µM (inactive). The GI50 [10] was > 100 µM (inactive), the GI50 [11] was > 100 µM (inactive) and the GI50 [12] was > 100 µM (inactive). For the same compound, the GI50 [13] was > 100 µM (inactive), the GI50 [14] was > 100 µM (inactive) and the GI50 [15] was > 100 µM (inactive). The GI50 [16] was > 100 µM (inactive).
For `OCC(O)C(O)C(O)c1nn(-c2ccccc2)c2nc3cc(Cl)c(Cl)cc3nc12` (configuration not stated), the GI50 [1] was 28.8 µM (inactive), the GI50 [2] was 25.4 µM (inactive) and the GI50 [3] was 25.1 µM (inactive). The GI50 [4] was 42.1 µM (inactive), the GI50 [5] was 54.5 µM (inactive) and the GI50 [6] was > 10 µM (inactive). For the same compound, the GI50 [7] was 36.5 µM (inactive), the GI50 [8] was 74.6 µM (inactive) and the GI50 [9] was 35.6 µM (inactive). The GI50 [10] was 27 µM (inactive), the GI50 [11] was 24.4 µM (inactive) and the GI50 [12] was 39.4 µM (inactive). For the same compound, the GI50 [13] was 56.5 µM (inactive), the GI50 [14] was 49.8 µM (inactive) and the GI50 [15] was 33 µM (inactive). The GI50 [16] was 37.2 µM (inactive).

Source: ChEMBL document CHEMBL1201862, “PubChem BioAssay data set” (2004)
